This passage reports TGI and GI50 results from PubChem BioAssay (NCI).

The structures appear in SMILES notation.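 The compound was tested at five concentrations on cells cultured in 96-well plates, with a 48-hour exposure period. Here, GI50 denotes the concentration required for 50% inhibition of growth. Definition used: TGI = concentration required for complete inhibition of growth.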

Some test systems named below: HCT-15 colon; HOP-92 NSCLC; NCI-H522 lung; OVCAR-3 ovarian; RXF 393 renal; SF-539 CNS; SW-620 colon; TK-10 renal; U251 CNS; HOP-62 NSCLC.
Common to all, as to experiment: NCI anticancer screen, dose series, 48 h

As to `O=c1[nH]c(-c2ccccc2)nc2ccc(Cl)cc12`, the TGI in the test with HCT-15 colon is over 100 µM; in the test with HOP-92 NSCLC, 84.1 µM; in the test on NCI-H522 lung, 95.7 µM; in the test on OVCAR-3 ovarian, over 100 µM; in the test with RXF 393 renal, over 100 µM; in the test with SF-539 CNS, over 100 µM. Further, the TGI in the test on SW-620 colon, with TK-10 renal and in the test on U251 CNS was over 100 µM each time.
`COc1ccc(Nc2ncccc2/C=C/C(=O)c2cc(OC)c(OC)c(OC)c2)cc1`: the GI50 was 1.66 µM with HCT-15 colon; 1.78 µM with HOP-62 NSCLC; 1.59 µM with HOP-92 NSCLC; 0.36 µM with NCI-H522 lung; 1.64 µM with OVCAR-3 ovarian; 1.49 µM in the test on RXF 393 renal. The GI50 in the test on SF-539 CNS is 2.04 µM; with SW-620 colon, 1.2 µM; in the test with U251 CNS, 1.27 µM. For the same compound, the TGI in the test with HCT-15 colon is 5.06 µM; in the test with HOP-62 NSCLC, 3.75 µM; in the test on HOP-92 NSCLC it was 4.28 µM; in the test on NCI-H522 lung it was 1.64 µM; with OVCAR-3 ovarian, 2.99 µM; in the test with RXF 393 renal, 2.82 µM. For the same compound, the TGI in the test on SF-539 CNS was 5.15 µM; in the test with SW-620 colon, 2.43 µM; in the test with U251 CNS, 2.52 µM.
Turning to `CSc1ccc(-c2cc(-c3ccc(NC(=O)CCCN4CCCC4)cc3)nc(-c3ccc(NC(=O)CCCN4CCCC4)cc3)c2)cc1`, the GI50 in the test on HOP-62 NSCLC is 1.7 µM; with HOP-92 NSCLC it was 1.72 µM; in the test on NCI-H522 lung, 1.91 µM; in the test with OVCAR-3 ovarian, 3.97 µM; in the test on RXF 393 renal, 2.23 µM; in the test with SF-539 CNS, 2.52 µM. For the same compound, the GI50 is 1.79 µM with SW-620 colon, 4.56 µM in the test on TK-10 renal and 1.64 µM in the test with U251 CNS. Moreover, the TGI is 3.5 µM with HOP-62 NSCLC; 5.61 µM with HOP-92 NSCLC; 3.59 µM in the test on NCI-H522 lung; 14.6 µM with OVCAR-3 ovarian; 5.93 µM in the test with RXF 393 renal; 7.54 µM with SF-539 CNS. Also, the TGI in the test with SW-620 colon worked out at 3.29 µM; with TK-10 renal, 17.5 µM; in the test on U251 CNS, 3.12 µM.
With `CC1=C(C)CC2(SC1)C(=O)c1ccccc1C2=O`, the TGI in the test on HCT-15 colon, in the test with HOP-62 NSCLC, in the test on HOP-92 NSCLC, with NCI-H522 lung, in the test on RXF 393 renal and with SF-539 CNS was over 100 µM each time. Moreover, the TGI in the test with SW-620 colon, in the test on TK-10 renal and in the test with U251 CNS was over 100 µM in each case.
For `ON(CCc1ccncc1)Cc1ccccc1`, the TGI in the test with HCT-15 colon, in the test with HOP-62 NSCLC, in the test on HOP-92 NSCLC, with NCI-H522 lung, in the test on OVCAR-3 ovarian and in the test with RXF 393 renal was over 100 µM in each case. Further, the TGI in the test on SF-539 CNS and in the test with SW-620 colon was over 100 µM throughout.
For the compound `C=C1C(=O)O[C@H]2[C@H]1CC/C(CNS(=O)(=O)c1ccc3ccccc3c1)=C\CC[C@@]1(C)O[C@@H]21`, the GI50 is 1.27 µM with HCT-15 colon; 12.5 µM in the test on HOP-62 NSCLC; 1.89 µM with HOP-92 NSCLC; 0.444 µM with NCI-H522 lung; 0.805 µM in the test with OVCAR-3 ovarian; 1.3 µM in the test with RXF 393 renal. For the same compound, the GI50 is 1.73 µM in the test on SF-539 CNS, 1.01 µM with SW-620 colon and 8.29 µM in the test with U251 CNS. For the same compound, the TGI in the test on HCT-15 colon was determined as 2.77 µM; with HOP-62 NSCLC, 29.6 µM; in the test with HOP-92 NSCLC, 6.34 µM; in the test on NCI-H522 lung, 1.8 µM; in the test with OVCAR-3 ovarian it was 2.12 µM; with RXF 393 renal it was 2.65 µM. For the same compound, the figures for the TGI with SF-539 CNS, in the test with SW-620 colon and in the test with U251 CNS were 3.56 µM, 2.44 µM and 21.1 µM, respectively.
With `O=S(=O)([O-])[O-].[Cl-].[NH2-].[NH2-].[NH2-].[NH2-].[Ru+3].c1ccc(-c2cccnc2)cc1`, the GI50 with HCT-15 colon, with HOP-62 NSCLC, in the test on HOP-92 NSCLC, with NCI-H522 lung, with OVCAR-3 ovarian and in the test with SF-539 CNS was over 100 µM in each case. Also, the GI50 in the test with SW-620 colon, in the test with TK-10 renal and with U251 CNS was over 100 µM each time. The TGI in the test with HCT-15 colon, in the test on HOP-62 NSCLC, with HOP-92 NSCLC, in the test on NCI-H522 lung, in the test on OVCAR-3 ovarian and in the test on SF-539 CNS was over 100 µM throughout. In addition, the TGI in the test on SW-620 colon, with TK-10 renal and in the test with U251 CNS was over 100 µM each time.
Regarding `OCCN(CCO)c1cccc(N(CCO)CCO)c1`, the TGI in the test with HCT-15 colon, with HOP-62 NSCLC, in the test with HOP-92 NSCLC, in the test with NCI-H522 lung, in the test on OVCAR-3 ovarian and in the test on RXF 393 renal was over 100 µM each time. Further, the TGI in the test on SW-620 colon, in the test with TK-10 renal and in the test on U251 CNS was over 100 µM each time.
In the case of `Cc1cc(=O)c2cc(N=Cc3ccc([N+](=O)[O-])o3)ccc2o1`, the TGI with HCT-15 colon, in the test on HOP-62 NSCLC, in the test on HOP-92 NSCLC, in the test with NCI-H522 lung, in the test on OVCAR-3 ovarian and with SF-539 CNS was over 100 µM in each case. The TGI in the test on SW-620 colon, in the test on TK-10 renal and with U251 CNS was over 100 µM throughout.
Consider `CC(=O)O[C@H]1CC[C@@]2(C)C(CC[C@]3(C)C2CC[C@]2(C)Oc4c(C)cc(O)cc4C[C@@H]23)C1(C)C` (stereo not given in full), for which the TGI is 14.9 µM in the test on HCT-15 colon; 30.6 µM in the test on HOP-62 NSCLC; 18.2 µM with HOP-92 NSCLC; 21.5 µM in the test with NCI-H522 lung; 25.7 µM in the test with OVCAR-3 ovarian; 7.09 µM in the test with RXF 393 renal. In addition, the TGI with SW-620 colon was 5.71 µM; in the test with TK-10 renal, 29.3 µM; in the test on U251 CNS it was 7.96 µM.
Turning to `c1cc(C2CCCCC2)ccc1OCCCCCCN1CCNCC1`, the GI50 with HCT-15 colon is 1.64 µM; in the test with HOP-92 NSCLC it was 1.55 µM; with NCI-H522 lung, 1.7 µM; with OVCAR-3 ovarian it was 1.82 µM; with SF-539 CNS it was 1.78 µM; in the test on SW-620 colon it was 1.78 µM. The results for the GI50 in the test with TK-10 renal and in the test with U251 CNS were 1.78 µM and 1.63 µM, respectively. Moreover, the TGI in the test with HCT-15 colon is 3.25 µM; in the test with HOP-92 NSCLC it was 5.23 µM; with NCI-H522 lung, 3.38 µM; with OVCAR-3 ovarian, 3.57 µM; in the test with SF-539 CNS, 3.25 µM; in the test on SW-620 colon it was 3.4 µM. Further, the TGI was determined as 3.24 µM in the test with TK-10 renal and 3.17 µM in the test with U251 CNS.
For the compound `COc1cc2c(c(OC)c1OC)-c1ccc(NNC(=S)N(Cc3cccc(C[N+](Cc4cccc(CNC56CC7CC(CC(C7)C5)C6)c4)(Cc4cccc(CNC56CC7CC(CC(C7)C5)C6)c4)Cc4cccc(CN(C(=S)NNc5ccc6c(cc5=O)[C@@H](NC(C)=O)CCc5cc(OC)c(OC)c(OC)c5-6)C56CC7CC(CC(C7)C5)C6)c4)c3)C34CC5CC(CC(C5)C3)C4)c(=O)cc1[C@@H](NC(C)=O)CC2` (stereo not given in full), the GI50 with HCT-15 colon is 1.56 µM; in the test with HOP-62 NSCLC it was 2.14 µM; in the test with HOP-92 NSCLC, 0.897 µM; in the test with NCI-H522 lung, 0.699 µM; in the test on OVCAR-3 ovarian it was 1.66 µM; with RXF 393 renal it was 1.7 µM. In addition, the GI50 in the test on SF-539 CNS was 1.14 µM; with SW-620 colon, 0.814 µM; in the test with TK-10 renal, 3.66 µM. In addition, the TGI in the test with HCT-15 colon came to 5.96 µM; in the test on HOP-62 NSCLC, 7.43 µM; in the test on HOP-92 NSCLC, 4.08 µM; with NCI-H522 lung it was 1.88 µM; in the test with OVCAR-3 ovarian, 6.53 µM; with RXF 393 renal it was 6.65 µM. For the same compound, the results for the TGI in the test on SF-539 CNS, with SW-620 colon and in the test with TK-10 renal were 4.3 µM, 2.06 µM and 8.34 µM, respectively.
Consider `CC1=C(SCc2ccccc2)C(=O)c2ccccc2C1=O`, for which the TGI with HCT-15 colon was 43.5 µM; in the test on HOP-62 NSCLC, 33.5 µM; with HOP-92 NSCLC, 19 µM; with OVCAR-3 ovarian, 23.1 µM; in the test with RXF 393 renal, 30.4 µM; in the test on SF-539 CNS, 30 µM. Further, the TGI in the test with SW-620 colon was over 100 µM; in the test on TK-10 renal, 36.9 µM; with U251 CNS, 33.5 µM.
As for `CCN(CC)CC(=O)/C=C/c1ccc(C)cc1`, the TGI with HCT-15 colon was 46 µM; in the test on HOP-62 NSCLC, over 100 µM; in the test on HOP-92 NSCLC it was 92.4 µM; in the test with OVCAR-3 ovarian, 45.1 µM; with RXF 393 renal it was 44.2 µM; in the test on SF-539 CNS, 37 µM. For the same compound, the TGI with SW-620 colon stood at 30.3 µM; with TK-10 renal, 74.8 µM; in the test with U251 CNS it was 30.1 µM.
For the compound `Cc1ccc2c[c]1[Hg][CH2]COS2(=O)=O`, the GI50 was 16.4 µM in the test on HCT-15 colon; 71.7 µM with HOP-62 NSCLC; 19.5 µM in the test on HOP-92 NSCLC; 22.6 µM in the test with NCI-H522 lung; 15.9 µM in the test with RXF 393 renal; 18 µM with SF-539 CNS. For the same compound, the GI50 is 17.8 µM in the test with SW-620 colon, 17.8 µM with TK-10 renal and 17.5 µM in the test on U251 CNS. Besides, the TGI in the test with HCT-15 colon was 30 µM; in the test with HOP-62 NSCLC it was over 100 µM; in the test with HOP-92 NSCLC, 38.3 µM; in the test with NCI-H522 lung it was 42.8 µM; with RXF 393 renal, 29.3 µM; in the test on SF-539 CNS, 32.5 µM. Further, the TGI in the test on SW-620 colon is 31.6 µM; with TK-10 renal, 31.7 µM; with U251 CNS, 31.3 µM.
